# Source: patent US20260250318A1, “COMPOSITIONS AND METHODS FOR CROSSING THE BLOOD BRAIN BARRIER” (VOYAGER THERAPEUTICS, INC., priority 2022, published 2026)
# Tested on: brain
# Experiment: Maturation of TTM-001 capsid, NGS enrichment in brain of CD-1 Outbred mice
# Format: in vivo
# Settings: NGS fold-enrichment of TTM-001 matured AAV capsid variants in the brain of CD-1 Outbred mice; intravenous 1.0×10^12 VG/dose; 14 days in life; RNA; relative to non-matured TTM-001 control
# Text: This Example describes maturation of the TTM-001 (SEQ ID NO: 981 (amino acid) and 983 (DNA), comprising SEQ ID NO: 941) and TTM-002 (SEQ ID NO: 982 (amino acid) and 984 (DNA), comprising SEQ ID NO: 2) capsid variants to further enhance their transduction and biodistribution in the central nervous system and evolve the AAV capsid variants to provide further cross-species compatibility. Two approaches were used to mature the TTM-001 and TTM-002 capsid sequences in order to randomize and mutate within and around the peptide insert comprised within loop IV of the capsid variant. […] In the first maturation approach, sets of three contiguous amino acids were randomized across the mutagenesis region in the TTM-001 and TTM-002 sequences, which spanned from position 450 to position 466, numbered according to SEQ ID NO: 981 and 982. In the second maturation approach, mutagenic primers were used to introduce point mutations at a low frequency, scattered across the mutagenesis region in the TTM-001 and TTM-002 sequences ranging from position 449 to position 466, numbered according to SEQ ID NO: 981 and 982. AAV capsid variants arising from each maturation approach for TTM-001 were pooled together and AAV capsid variants arising from each maturation approach for TTM-002 were also pooled together, for subsequent testing and characterization in mice.
# The library of pooled matured AAV capsid variants generated from TTM-001 or library of pooled matured AAV capsid variants generated from the TTM-002 matured AAV capsid variant each were intravenously injected into the tail vein of three female CD-1 Outbred mice (Charles River) at a dose of 1.0×10^12 VG/dose. After 14-days in life, the brains of the mice were isolated and RNA was extracted. Following RNA recovery and RT-PCR amplification, a systematic NGS enrichment analysis was performed to calculate the fold enrichment ratio relative to the corresponding TTM-001 or TTM-002 control, and the peptides comprised within the variants were identified. The data for the TTM-001 matured capsid variants is provided in Table 13 and the data for the TTM-002 matured capsid variants is provided in Table 14.
row,Sequence,Fold enrichment over TTM-001
1,KTINGSSSPHLWAQNQQT (peptide inserted in AAV capsid),2.605 fold
2,KTINGSGSPHSKNTRQQT,2.047 fold
3,KGLVGSGSPHSKAQNQQT,2.412 fold
4,KSINGSGSPHSKAHDQQT,3.592 fold
5,KTINGSGSPHCLLQNQQT,4.898 fold
6,KTINTIESPHSKAQNQQT,2.331 fold
7,KWSPGSGSPHSKAQNQQT (peptide inserted in AAV capsid),2.764 fold
8,KPLRGSGSPHSKAQNQQT,2.486 fold
9,KTINGSGSPHSKSNKQQT,2.006 fold
10,KTINGSGSPHSKQRSQQT,2.395 fold
11,KTINGSGSPHSKAQNWRT,2.125 fold
12,KTINGSASPHWSAQNQQT,2.121 fold
13,KTINGSGSPHSKSFRQQT,3.426 fold
14,KTINGSPSPHYLAQNQQT,2.391 fold
15,KTINGSGSPHSKPVRQQT,2.529 fold
16,KTINGQRSPHVKAQNQQT,2.596 fold
17,KTINGSGSPHSKAQSYRT,2.088 fold
18,KTIRSKGSPHSKAQNQQT,2.559 fold
19,KTINGSGSPHSKRVGQQT,2.190 fold
20,KTINGSGSPHTLFQNQQT,2.136 fold
21,KTINGLPSPHRKAQNQQT,2.719 fold
22,KTINGSGSPHSKAQVLIT,2.317 fold
23,KTINGSGSPHSSLCNQQT,2.592 fold
24,KTINGSGSPHSKAQGVKT,2.002 fold
25,KTINGSGSPHSKVTRQQT,2.397 fold

row,Sequence,Fold enrichment over TTM-001
1,KTINGSGSPHSIFSNQQT,2.110 fold
2,KTINGSGSPHSLSCNQQT,2.605 fold
3,KTINGLFSPHRKAQNQQT,2.331 fold
4,KTINLSRSPHSKAQNQQT,2.246 fold
5,KTINGSGSPHSRRVNQQT,2.676 fold
6,KTINGSGSPHSRLKNQQT,3.156 fold
7,KTINGSGSPHSKAQRKLT,4.339 fold
8,KTINGRYSPHSKAQNQQT,2.080 fold
9,KTINGSVSPHYVAQNQQT (peptide inserted in AAV capsid),2.022 fold
10,KTINGSGSPHSKAQNLRR,2.231 fold
11,KTINGIASPHRKAQNQQT,2.099 fold
12,KTINGSGSPHSKAQRHVT,3.404 fold
13,KTINGSGSPHSKVARQQT,2.136 fold
14,KTINGSGSPHSKATRRQT,3.277 fold
15,KTINGVLSPHRKAQNQQT,2.868 fold
16,KTINGSGSPHSKARNKQT,2.108 fold
17,KTINGSGSPHLSCQNQQT,2.277 fold
18,KTINGSGSPHSKWVSQQT,2.089 fold
19,KTINGSGSPHSKKVSQQT,2.088 fold
20,KTINGSGSPHSKSRWQQT,3.698 fold
21,KTINGSGSPHSKAQNARH,2.127 fold
22,KTINGSGSPHSKARLTQT,2.223 fold
23,KTINGMCSPHSKAQNQQT,2.006 fold
24,KTINMRVSPHSKAQNQQT,3.073 fold
25,KTINGSGSPHSLFPNQQT,2.106 fold

row,Sequence,Fold enrichment over TTM-001
1,KTINGSGSPHSKAQGVRT,2.188 fold
2,KTINGSGSPHSLRFNQQT,4.765 fold
3,KTINGSGSPHTLWQNQQT,2.168 fold
4,KTINGSGSPHSKARIMQT,2.283 fold
5,KTINGSSSPHCTAQNQQT (peptide inserted in AAV capsid),5.607 fold
6,KTINLIRSPHSKAQNQQT,2.920 fold
7,KTINGSGSPHSKAQLLKT,2.985 fold
8,KTINGSVSPHSWAQNQQT (peptide inserted in AAV capsid),2.562 fold
9,KTINGSGSPHSKLSKQQT,2.482 fold
10,KTINGSGSPHSKRAAQQT,3.838 fold
11,KTINGSGSPHSKAQFSRT,2.847 fold
12,KTINGYLSPHRKAQNQQT,2.762 fold
13,KTINGSGSPHSKAQWVLT,2.052 fold
14,KTINGSGSPHSKRVSQQT,2.196 fold
15,KTINGSISPHFVAQNQQT,2.006 fold
16,KTINGSGSPHSKFKLQQT,2.244 fold
17,KTINGSGSPHTRRQNQQT,3.350 fold
18,KTINGSGSPHSKAFARQT,3.082 fold
19,KTINGSGSPHSKAPNHLT,2.324 fold
20,KTINGSGSPHSKGRIQQT,2.061 fold
21,KTINGSGSPHSKSRRQQT,4.175 fold
22,KTIMRVGSPHSKAQNQQT,4.875 fold
23,KTINGSLSPHCLAQNQQT,2.577 fold
24,KTINGSGSPHSKARGQQT,2.039 fold
25,KTINGSCSPHLAAQNQQT,2.134 fold

row,Sequence,Fold enrichment over TTM-001
1,KHRSGSGSPHSKAQNQQT,2.456 fold
2,KTINGSGSPHSKRLTQQT,2.363 fold
3,KTINGSGSPHSKGRAQQT,2.607 fold
4,KTINGHRSPHLKAQNQQT,2.320 fold
5,KTINGSGSPHSKKGGQQT,2.009 fold
6,KTINGSGSPHSYRPNQQT,3.095 fold
7,KTINRHSSPHSKAQNQQT,2.877 fold
8,KDSLGSGSPHSKAQNQQT,2.175 fold
9,KTINGSGSPHSRKLNQQT,3.646 fold
10,KTINGSGSPHSKGRSQQT,2.080 fold
11,KTINGSGSPHSKRSLQQT,2.270 fold
12,KTINGSRSPHIRAQNQQT (peptide inserted in AAV capsid),2.356 fold
13,KTINGSGSPHSTVWNQQT,2.196 fold
14,KTINGSGSPHSKSCAQQT,2.348 fold
15,KTINGRTSPHAKAQNQQT,2.060 fold
16,KTINGSLSPHLCAQNQQT,2.775 fold
17,KTINGSGSPHSKAQGFRT,2.279 fold
18,KTINGRHSPHLKAQNQQT,2.369 fold
19,KTINGCSSPHRKAQNQQT,2.291 fold
20,KTINGSGSPHSKARRSQT,3.493 fold
21,KTINGSGTPHSKAQNQQT,2.259 fold
22,KTINGSGSPHSKLSRQQT,2.380 fold
23,KTINGSGSPHSKAQNRRS,2.613 fold
24,KTINGSGSPHSKAQNRMR,2.804 fold
25,KTINGSGSPHSKRTFQQT,3.879 fold

row,Sequence,Fold enrichment over TTM-001
1,KTINGSGSPHSKVIRQQT,2.760 fold
2,KTINGSGSPHLWSQNQQT,3.857 fold
3,KTINGSGSPHSKARPYQT,3.050 fold
4,KTINGLVSPHCKAQNQQT,2.605 fold
5,KTINGFRSPHLKAQNQQT,2.063 fold
6,KTINGSGSPHSKAQTART,2.363 fold
7,KTINGMSSPHRKAQNQQT,2.352 fold
8,KTINGSGSPHSKAQSSKT,2.078 fold
9,KTINGVTSPHWKAQNQQT,2.387 fold
10,KTINGSGSPHLRRQNQQT,3.493 fold
11,KTINGSGSPHSKAQTNRT,2.510 fold
12,KTINSRFSPHSKAQNQQT,2.032 fold
13,KTINGSGSPHSKARLRQT,4.155 fold
14,KTINGSGSPHSLRSNQQT,2.778 fold
15,KTINMSRSPHSKAQNQQT,2.622 fold
16,KTINGSGSPHLTWQNQQT,2.637 fold
17,KTINGSESPHDSAQNQQT,2.164 fold
18,KTINGSGSPHSKTCLQQT,3.717 fold
19,KTINGMKSPHSKAQNQQT,2.413 fold
20,KTINGSGSPHSKEETQQT,2.223 fold
21,KTINGSGSPHSKANRMQT,2.508 fold
